Patent US20110053897A1 (IRM LLC, priority 2009, published 2011)
Where two headings read alike, the source gives them in different places.

Target: T1, Syk kinase (Homo sapiens, UniProt P43405)
T1 construct: purchased
Experiment: Syk kinase inhibition, Caliper LabChip off-chip mobility-shift kinase assay
Assay type: biochemical
Conditions: read-out: Syk Enzyme IC50
Outline: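 Purified Syk pre-incubated 15 min with compound in 100 mM HEPES pH 7.5, 1 mM DTT, 10 mM MgCl2 or MnCl2, 0.002% Brij-35, then 1.5 μM fluorescein peptide and ATP at apparent KM added; 1–1.5 h at room temperature, 4% DMSO, EDTA stop. Microfluidic mobility-shift product/substrate conversion gave % inhibition; IC50 from 12-point series (10–0.00003 μM) by 4-parameter fit.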

| Compound | IC50 (Caliper LabChip assay) [nM] | IC50 [nM] |
| --- | --- | --- |
| CC(C)(C)Nc1nc(Nc2cc(-c3ncccn3)ccn2)cc2ccn(CCO)c(=O)c12 [compound 878] | 9 | – |
| CC(CO)Nc1nc(Nc2ccccn2)cc2cc[nH]c(=O)c12 (centres unmarked) [compound 274] | – | 55 |
| CC(C)(C)Nc1nc(Nc2cc(C(C)(C)O)c(F)cn2)cc2ccn(CC(N)=O)c(=O)c12 [compound 877] | 94 | – |
| CCn1ccc2cc(Nc3cnccn3)nc(NCCC(F)(F)F)c2c1=O [compound 781] | 299 | – |
| CC(C)(C)Nc1nc(-c2cnc(N)nc2)cc2ccn(CCCO)c(=O)c12 [compound 915] | 26 | – |
| CC(O)Cn1ccc2cc(-c3cnc(N)nc3)nc(NC(C)(C)C)c2c1=O (centres unmarked) [compound 927] | 14 | – |
| O=c1c2c(N[C@H]3CC[C@H](O)CC3)nc(Nc3cnccn3)cc2ccn1CCO [compound 989] | 15 | – |
| Cc1ccnc(Nc2cc3ccn(C)c(=O)c3c(Nc3cccc(S(N)(=O)=O)c3)n2)c1 [compound 352] | – | 294 |
| CCn1ccc2cc(Nc3cnccn3)nc(N[C@@H]3CCC[C@@H]3CO)c2c1=O [compound 942] | 87 | – |
| CCn1ccc2cc(Nc3cc(C)ccn3)nc(NC(C)(C)CCO)c2c1=O [compound 782] | 217 | – |
| Cn1ccc2cc(Nc3nccc(O)n3)nc(N[C@H]3CC[C@@H](O)CC3)c2c1=O [compound 798] | 128 | – |
| CC(C)(C)Nc1nc(Nc2cnccn2)cc2ccn(Cc3nn[nH]n3)c(=O)c12 [compound 884] | 27 | – |
| CC(O)c1ccnc(Nc2cc3ccn(CC(N)=O)c(=O)c3c(NC3(C)CCC3)n2)c1 (centres unmarked) [compound 721] | 18 | – |
| N#CCn1ccc2cc(-c3cnc(N)nc3)nc(NC3CCCC3)c2c1=O [compound 756] | 117 | – |
| C[C@@H](O)c1ccnc(Nc2cc3ccn(CCO)c(=O)c3c(NC(C)(C)C)n2)c1 [compound 713] | 3 | – |
| CCn1ccc2cc(Nc3cnccn3)nc(NCC(F)(F)F)c2c1=O [compound 1044] | 110 | – |
| NC(=O)Cn1ccc2cc(-c3cnc(N)nc3)nc(NC3CC(F)(F)C3)c2c1=O [compound 759] | 175 | – |
| CCn1ccc2cc(Nc3cnccn3)nc(N[C@@H](C)CO)c2c1=O [compound 353] | – | 35 |
| CC(C)(C)Nc1nc(Nc2cc(OC3CCN(CCO)CC3)ncn2)cc2ccn(CCO)c(=O)c12 [compound 646] | 9 | – |

| Compound | IC50 (Caliper LabChip assay) [nM] | IC50 [nM] |
| --- | --- | --- |
| CCn1ccc2cc(Nc3cc(C)ccn3)nc(N[C@H](C)CO)c2c1=O [compound 962] | 92 | – |
| Cc1ccnc(Nc2cc3ccn(C)c(=O)c3c(N[C@H]3CC[C@@H](O)CC3)n2)c1 [compound 326] | – | 32 |
| CCn1ccc2cc(-c3cnc(N)nc3)nc(NC3(C)CCC3)c2c1=O [compound 906] | 29 | – |
| CC1(Nc2nc(-c3cnc(N)nc3)cc3ccn(CCO)c(=O)c23)CC1 [compound 1036] | 20 | – |
| CC(C)n1ccc2cc(Nc3cc(C(C)(C)O)ccn3)nc(N[C@H]3CC[C@@H](O)CC3)c2c1=O [compound 706] | 55 | – |
| CC(C)(O)Cc1ccnc(Nc2cc3ccn(CCO)c(=O)c3c(NC(C)(C)C)n2)c1 [compound 880] | 74 | – |
| CC(C)(C)Nc1nc(Nc2cc(/C(N)=N/O)ccn2)cc2ccn(CCO)c(=O)c12 [compound 869] | 6 | – |
| CC(C)(O)Cn1ccc2cc(Nc3cc(C(C)(C)O)ncn3)nc(NC3(C)CCC3)c2c1=O [compound 733] | 92 | – |
| Nc1ncc(-c2cc3ccn(C4COC4)c(=O)c3c(NC3CCOCC3)n2)cn1 [compound 770] | 36 | – |
| CC(=O)c1ccnc(Nc2cc3ccn(CCO)c(=O)c3c(NC(C)(C)C)n2)c1 [compound 684] | 51 | – |
| CC(C)(C)Nc1nc(Nc2cnccn2)cc2ccn(CCN3CCOCC3)c(=O)c12 [compound 998] | 205 | – |
| CC(C)Nc1nc(Nc2ccc(C#N)cn2)cc2cc[nH]c(=O)c12 [compound 570] | – | 377 |
| CN(C)CCn1ccc2cc(Nc3cnccn3)nc(N[C@H]3CC[C@@H](O)CC3)c2c1=O [compound 387] | – | 33 |
| CC(C)Nc1nc(Nc2cnccn2)cc2ccn(CCN3CCOCC3)c(=O)c12 [compound 320] | – | 200 |
| Cn1ccc2cc(Nc3cnccn3)nc(N[C@H]3CC[C@@H](O)CC3)c2c1=O [compound 330] | – | 24 |
| CCn1ccc2cc(Nc3cnccn3)nc(N[C@H](CO)C(C)(C)C)c2c1=O [compound 807] | 216 | – |
| CC(C)(C)Nc1nc(Nc2cc(OCC3CCCO3)ncn2)cc2ccn(CC(O)CO)c(=O)c12 (centres unmarked) [compound 891] | 60 | – |
| CC(C)(C)Nc1nc(Nc2cc(C(C)(C)O)c(Cl)cn2)cc2ccn(CCO)c(=O)c12 [compound 728] | 283 | – |

Other lines, results leading:

| IC50 (Caliper LabChip assay) [nM] | IC50 [nM] | Compound |
| --- | --- | --- |
| – | 49 | Cc1cc(Nc2nc(Nc3cc(CO)ccn3)cc3cc[nH]c(=O)c23)ccc1C1CCN(C2CC2)CC1 [compound 260] |
| – | 12 | Cc1cc(Nc2nc(C(C)O)cc3cc[nH]c(=O)c23)ccc1C1CCNCC1 (centres unmarked) [compound 236] |
| – | 75 | CCOCC(=O)N1CCC(c2ccc(Nc3nc(-c4cncc(OC)n4)cc4cc[nH]c(=O)c34)cc2C)CC1 [compound 50] |
| – | 12 | Cc1ncc(-c2cc3cc[nH]c(=O)c3c(Nc3ccc(C4CCN(CCCF)CC4)c(C)c3)n2)cn1 [compound 72] |
| 145 | – | CC(C)(Cc1ccc(F)cc1)Nc1nc(-c2cnc(N)nc2)cc2ccn(CCO)c(=O)c12 [compound 925] |
| – | 181 | COc1cncc(-c2cc3cc[nH]c(=O)c3c(Nc3ccc(C4CCN(C(=O)N5CCOCC5)CC4)c(C)c3)n2)n1 [compound 115] |
| – | 53 | COc1cncc(-c2cc3cc[nH]c(=O)c3c(Nc3ccc(C4CCN(C(=O)C5(C)COC5)CC4)c(C)c3)n2)n1 [compound 75] |
| 250 | – | Cc1ccnc(Nc2cc3ccn(C)c(=O)c3c(Nc3ccc(C)c(S(N)(=O)=O)c3)n2)c1 [compound 654] |
| – | 10 | CCN1CCC(c2ccc(Nc3nc(-c4cncc(OC)n4)cc4cc[nH]c(=O)c34)cc2C)CC1 [compound 137] |
| – | 80 | CCNC(=O)CN1CCC(c2ccc(Nc3nc(-c4cncc(OC)n4)cc4cc[nH]c(=O)c34)cc2C)CC1 [compound 179] |
| – | 4870 | O=c1[nH]ccc2cc(Nc3ccc(F)cn3)nc(Nc3ccc(N4CCOCC4)cc3)c12 [compound 576] |
| – | 75 | Cc1ccnc(Nc2cc3cc[nH]c(=O)c3c(NC(C)(C)C)n2)c1 [compound 494] |
| – | 108 | Nc1ncc(-c2cc3c(F)c[nH]c(=O)c3c(Nc3ccc(N4CCOCC4)cc3)n2)cn1 [compound 428] |
| – | 184 | COC(=O)C(C)N1CCC(c2ccc(Nc3nc(-c4cncc(OC)n4)cc4cc[nH]c(=O)c34)cc2C)CC1 (centres unmarked) [compound 116] |
| – | 113 | CCN1CCN(CCc2ccc(Nc3nc(Nc4ccc(C(N)=O)cn4)cc4cc[nH]c(=O)c34)cc2)CC1 [compound 579] |
| – | 281 | CCC(C)(C)Nc1nc(-c2cnc(N)nc2)cc2cc[nH]c(=O)c12 [compound 454] |
| – | 24 | COc1cncc(-c2cc3cc[nH]c(=O)c3c(Nc3ccc(C4CCN(CCC(N)=O)CC4)c(C)c3)n2)n1 [compound 158] |
| – | 19 | COc1cncc(-c2cc3cc[nH]c(=O)c3c(Nc3ccc(C4CCN(CCCC#N)CC4)c(C)c3)n2)n1 [compound 172] |
| – | 155 | COc1cncc(-c2cc3cc[nH]c(=O)c3c(Nc3ccc(C4CCN(C(=O)C5(N)CC5)CC4)c(C)c3)n2)n1 [compound 60] |
| – | 1770 | CN1CCC(Nc2nc(-c3cnc(N)nc3)cc3ccn(C)c(=O)c23)CC1 [compound 31] |

| IC50 (Caliper LabChip assay) [nM] | IC50 [nM] | Compound |
| --- | --- | --- |
| – | 362 | CCNC(=O)c1ccc(Nc2nc(Nc3cc(Cl)ccn3)cc3ccn(C)c(=O)c23)cc1 [compound 382] |
| – | 37 | COc1cncc(-c2cc3cc[nH]c(=O)c3c(Nc3ccc(CCN4CCCN(C)CC4)cc3)n2)n1 [compound 434] |
| – | 4 | COc1cncc(-c2cc3cc[nH]c(=O)c3c(Nc3ccc(C4CCN(CC5CC5)CC4)c(C)c3)n2)n1 [compound 81] |
| – | 374 | CCC(C)(C)Nc1nc(Nc2cc(C)ccn2)cc2cc[nH]c(=O)c12 [compound 528] |
| – | 102 | CO/N=C(\C)c1cc2cc[nH]c(=O)c2c(Nc2ccc(C3CCNCC3)c(C)c2)n1 [compound 235] |
| – | 228 | O=c1[nH]ccc2cc(Nc3ccccn3)nc(NCCc3cccnc3)c12 [compound 289] |
| – | 37 | COCCN1CCN(c2n[nH]c3cc(Nc4nc(-c5cnc(OC)nc5)cc5cc[nH]c(=O)c45)ccc23)CC1 [compound 216] |
| – | 178 | CC(C)CNc1nc(-c2cnc(N)nc2)cc2cc[nH]c(=O)c12 [compound 186] |
| – | 120 | COc1ncc(-c2cc3c(F)c[nH]c(=O)c3c(Nc3ccc(N4CCOCC4)cc3)n2)cn1 [compound 430] |
| 12 | – | CCn1ccc2cc(-c3cnc(N)nc3)nc(N[C@H]3CC[C@@H](O)C3)c2c1=O [compound 1039] |
| – | 278 | Cc1ccnc(Nc2cc3cc[nH]c(=O)c3c(N3CCOCC3)n2)c1 [compound 272] |
| – | 249 | O=c1[nH]ccc2cc(C3CCNCC3)nc(Nc3ccc(N4CCOCC4)cc3)c12 [compound 2] |
| – | 55 | O=c1[nH]cc(F)c2cc(-c3cncnc3)nc(Nc3ccc(N4CCOCC4)cc3)c12 [compound 429] |
| – | 243 | CCOCCc1cc2cc[nH]c(=O)c2c(Nc2ccc(N3CCO[C@H](C)C3)c(C)c2)n1 [compound 222] |
| 213 | – | CCn1ccc2cc(Nc3cnccn3)nc(Nc3ccc(C(=O)NCCO)cc3)c2c1=O [compound 831] |
| – | 61 | COc1cncc(-c2cc3cc[nH]c(=O)c3c(Nc3ccc(C4CCN(CC(C)C#N)CC4)c(C)c3)n2)n1 (centres unmarked) [compound 178] |
| – | 63 | Cc1ccnc(Nc2cc3cc[nH]c(=O)c3c(NC[C@@H]3CCCO3)n2)c1 [compound 505] |
| – | 2060 | CCOCCOc1ccc(Nc2nc(Nc3cnccn3)cc3ccn(C)c(=O)c23)cc1 [compound 340] |
| – | 301 | CC[C@H](C)Nc1nc(-c2cnc(N)nc2)cc2cc[nH]c(=O)c12 [compound 187] |
| – | 384 | Nc1ncc(-c2cc3cc[nH]c(=O)c3c(NCC3CC3)n2)cn1 [compound 189] |
